Source: patent publication US20220251036A1, “DIFLUOROHALOALLYLAMINE SULFONE DERIVATIVE INHIBITORS OF LYSYL OXIDASES, METHODS OF PREPARATION, AND USES THEREOF” (PHARMAXIS LTD., priority 2019, published 2022)

Legend:
skin fibrosis = assay: Mouse model of sclerosis (bleomycin-induced skin fibrosis); assay type: in vivo, male C57BL/6; conditions: […] in a topical formulation from day 3, histology after 21 days
Experimental: Subcutaneous bleomycin (0.1 U/kg) was administered every second day (for 21 days total) to male C57BL/6 to induced skin fibrosis as a model of sclerosis. […] Histology was completed after 21 days.

LOX = assay: Lysyl oxidase activity in rat skin after topical administration; assay type: in vivo; conditions: for dorsal skin LOX activity compared to the placebos: rats, topical
Experimental: Dorsal and ventral skin from rats treated by topical application of compound 1 were semi-defrosted at ice-cold temperature and three 3 mm punches of the skin were taken using a tissue puncher. The core sample was microdissected to leave only the epidermal and dermal layers. All other layers were removed. […] The tissue punch was placed in a 1.5 mL Eppendorf tube and snap-frozen in liquid nitrogen. A mortar and pestle stored at −80° C. was then used to pulverize skin tissue. The pulverized sample was further washed in 1 mL of ice-cold washing buffer ((0.15 M NaCl, 50 mM sodium borate, pH 8.0, with PMSF: Sigma P7626, 0.25 mM, and Aprotinin: Sigma A6279, 1 μL per mL). The tissue buffer was centrifuged (20000 g for 10 minutes at 4° C.), and the supernatant was discarded. Fresh wash buffer (1 mL) was added and the Eppendorf tube was agitated for 5 minutes at 4° C. on a vortex shaker. Washing was repeated two more times. After the last wash, the supernatant was completely removed. The rat dorsal skin pellet was re-suspended in 6 M urea 50 mM sodium borate buffer, according to sample weight to achieve final urea concentration of 4.5 M. The extraction buffer contains protease inhibitors; aprotinin and PMSF as above. Each homogenate was well-mixed by continuous vortexing at 4° C. for a 3 hour extraction. After 3 hours, […] 50 mM sodium borate buffer was added to each sample according to sample size to achieve the final urea concentration of 2.4 M. Protease inhibitors—aprotinin and PMSF—are present. The mixture was again centrifuged at (20000 g at 4° C. for 10 minutes) and the supernatant was collected in a clean, cold eppendorf. To 50 μl of sample, pargyline (final concentration at 0.5 mM) and mofegiline (final concentration at 1 μM) were added. Enzyme mix (25 μL) was transferred to the test plate with or without […] (0.5 μl 30 mM) and incubated at 37° C. for 30 minutes. Reaction mix (25 μL) is added to each well, plate fluorescence is measured every 2.5′ with or without 100 μM BAPN for the low controls (Ex: 544 nm/Em: 590 nm/gain: 1260 at 37° C.).

[1] = Ultraviolet (UV) absorbance; assay type: physicochemical; conditions: from 290 nm to 680 nm, Shimadzu LCMS 2020
Source text: Minimising UV light absorption of drugs may avoid risk of phototoxicity and photoallergy. For induction of phototoxicity and/or photoallergy, a chemical must absorb light within the range of natural sunlight (290 to 700 nm). Therefore, compounds with no absorbance across the natural sunlight spectrum are advantageous.

[2] = Chemical stability in topical formulation; assay type: physicochemical
Source text: The stability of a drug product formulation can have a significant impact on the length and cost of drug development, the nature of the studies required to support regulatory submissions, and, ultimately, safety and approvability. It is important to minimize the amount of impurities or degradation products that form over time due to interactions between the various ingredients in a formulation. This can be particularly important in compositions that are designed to increase skin permeability.

[3] = Skin permeability, Franz diffusion cell system; assay type: in vitro ADME, human; conditions: topical formulation containing 3% compound; for Concentration of Compound 1 in the receptor chamber: human skin
Source text: Skin permeability is essential when considering topical application to treat skin conditions. One way to evaluate skin permeability is to use a Franz diffusion cell system with human skin as a membrane (Particle Sciences; Technical Brief 2009; Vol. 10). The donor compound, topically formulated, is applied on the top chamber and diffusion through the skin is monitored at relevant time points by sampling the solution in the receptor chamber via the sampling port. The concentration of Compound 1 was determined by quantitative HPLC analysis.

NC/C=C(\F)C(F)(F)S(=O)(=O)c1ccccc1 [Compound 1, (Z)-3,4,4-trifluoro-4-(phenylsulfonyl)but-2-en-1-amine]
average LOX score (skin fibrosis): significant improvement | average collagen score (skin fibrosis): significant improvement | composite skin score (skin fibrosis): significant improvement | dorsal skin LOX activity compared to the placebos (LOX; cream containing 1% Compound 1, 400 mg/rat): significantly lower | dorsal skin LOX activity compared to the placebos (LOX; cream containing 3% Compound 1, 200 mg/rat): significantly lower | LOX activity in the skin of rats (LOX; topical application of cream versus control (FIG. 3)): reduction | UV absorbance [1]: no absorbance | % Area at 265 nm ([2]; 6% in formulation 2, 2-8° C., 161 days): 100.00 % Area | % Area at 265 nm ([2]; 6% in formulation 2, 40° C., 161 days): 99.66 % Area | % Area at 265 nm ([2]; 6% in formulation 2, reference sample): 100.00 % Area | % Area at 265 nm ([2]; 6% in formulation 2, rt, 161 days): 100.00 % Area | % Area at 265 nm ([2]; 8% in formulation 2, 2-8° C., 161 days): 99.91 % Area | % Area at 265 nm ([2]; 8% in formulation 2, 40° C., 161 days): 99.36 % Area | % Area at 265 nm ([2]; 8% in formulation 2, reference sample): 100.00 % Area | % Area at 265 nm ([2]; 8% in formulation 2, rt, 161 days): 99.74 % Area | compound peak percentage ([2]; topical formulation 2, all the tested conditions): above 99.5% | Concentration of Compound 1 in the receptor chamber ([3]; 0 hr): 0 µM | Concentration of Compound 1 in the receptor chamber ([3]; 2 hr): 0.017 µM | Concentration of Compound 1 in the receptor chamber ([3]; 4 hr): 0.042 µM | Concentration of Compound 1 in the receptor chamber ([3]; 6 hr): 0.166 µM | Concentration of Compound 1 in the receptor chamber ([3]; 20 hr): 1.742 µM | permeability and diffusion across the membrane (in words) ([3]; time dependent): good permeability and diffusion
